{
  "source": "paper PMC12720098",
  "about": "“Prolintane analogs as hybrid monoamine transporter ligands: Structural determinants and species differences” (The Journal of Biological Chemistry, 2025)",
  "key": {"hSERT [1]": {"target": "T1, hSERT (Homo sapiens, UniProt P31645)", "T1 construct": "expressed in transfected cells", "T1 sequence (P31645 whole entry)": "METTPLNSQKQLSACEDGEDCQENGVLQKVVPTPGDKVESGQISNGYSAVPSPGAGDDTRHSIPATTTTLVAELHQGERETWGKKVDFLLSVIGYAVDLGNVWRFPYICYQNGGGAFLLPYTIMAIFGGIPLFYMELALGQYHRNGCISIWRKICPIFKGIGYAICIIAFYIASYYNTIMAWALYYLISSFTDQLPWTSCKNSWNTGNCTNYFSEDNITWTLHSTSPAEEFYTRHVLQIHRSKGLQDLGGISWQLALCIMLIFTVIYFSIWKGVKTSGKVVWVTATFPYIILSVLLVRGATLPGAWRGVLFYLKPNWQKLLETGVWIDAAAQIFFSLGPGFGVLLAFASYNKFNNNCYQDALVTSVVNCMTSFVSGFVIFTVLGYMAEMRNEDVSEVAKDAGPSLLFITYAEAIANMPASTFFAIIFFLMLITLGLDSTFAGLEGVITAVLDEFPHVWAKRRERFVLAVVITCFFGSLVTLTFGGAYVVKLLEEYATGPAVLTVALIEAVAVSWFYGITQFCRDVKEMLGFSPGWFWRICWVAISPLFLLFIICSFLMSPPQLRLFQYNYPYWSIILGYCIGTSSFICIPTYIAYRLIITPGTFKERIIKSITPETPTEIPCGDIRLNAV", "assay_type": "cell-based", "settings": "batch release, % efflux of total uptake, compounds approximately at IC50 concentration", "procedure": "Batch release assays were performed as described previously ([44]). In brief, HEK293 cells stably expressing monoamine transporters were seeded similar to the procedure used for uptake inhibition assays. A day after seeding cells were pre-loaded with 50 μl/well 0.015 μM [^3H]MPP^+ (hDAT, hNET), or 0.08 μM [^3H]5-HT (hSERT) for 20 min at 37 °C. Then cells were washed four times for 3 to 4 min each and further incubated with KHB or KHB + monensin. After 10 min of incubation, two (screening) to four (full traces; hSERT) 2 min incubations were performed to establish a baseline release without substance. […] Each fraction was transferred to an empty well in the 96-well plate. For screening, a known inhibitor (hDAT, hNET: 50 μM GBR12909) and releaser (hDAT, hNET: 10 μM S-(+)-amphetamine) were used as controls. Ultima Gold XR scintillation cocktail was added to the remaining cells, and each well contained a release fraction. The counted radioactivity in the respective fraction was expressed as a percentage of total radioactivity at the start of the fraction.\n(§1) Half-maximal inhibitory concentrations (IC50) were obtained from fitting a sigmoidal dose–response ( Y=Bottom+Top−Bottom/1+10^((LogIC50−X)·HillSlope) ) in GraphPad Prism 10.3.1 (GraphPad Software Inc.). Uptake inhibition data were evaluated by one-way ANOVA followed by Tukey's multiple comparisons test. Release data were analyzed using a two-way ANOVA (batch release) or a mixed-effects model with Geisser-Greenhouse correction (time-dependent traces) employing Šidák correction for comparing differences between compounds with or without the addition of monensin."}, "hSERT [2]": {"target": "T1, hSERT", "assay_type": "cell-based", "settings": "for Mean of normalized currents elicited through hSERT by drug application: normalized to 10 µM 5-HT current", "procedure": "One day prior to recording, either native HEK293 cells or HEK293 cells stably expressing monoamine transporters were seeded at low density onto PDL-coated 35 mm dishes. Patch-clamp experiments were conducted at a holding potential of −60 mV, with substrate-induced currents recorded at room temperature (20–24 °C) using an […] amplifier and pClamp 11.2 software (MDS Analytical Technologies). During recordings, cells were continuously superfused via a DAD-12 perfusion system and an 8-tube manifold (ALA Scientific Instruments), delivering an external solution composed of 140 mM NaCl, 2.5 mM CaCl2, 3 mM KCl, 2 mM MgCl2, 20 mM glucose, and 10 mM HEPES, with pH adjusted to 7.3 using NaOH. The intracellular pipette solution, designed to mimic physiological ionic conditions, contained 133 mM potassium gluconate, 5.9 mM NaCl, 1 mM CaCl2, 0.7 mM MgCl2, 10 mM HEPES, and 10 mM EGTA, with pH set to 7.2 using KOH. Currents were filtered at 1 kHz and digitized at 10 kHz via a Digidata 1550 digitizer (MDS Analytical Technologies), followed by analysis in Clampfit 10.2 (Molecular Devices). Substance-induced currents were normalized to the current elicited by a saturating concentration of 5-HT (10 μM) of the same cell. Holding currents were subtracted, and a 50 Hz digital Gaussian low-pass filter was applied to the traces for further analysis."}, "hSERT [3]": {"target": "T1, hSERT", "experiment": "Uptake inhibition assay ([3H]5-HT) in transfected HEK293 cells", "assay_type": "cell-based", "procedure": "HEK293 cells stably expressing human monoamine transporters hSERT, hDAT or hNET were seeded into poly-D-lysine (PDL) coated 96-well plates with a density of approximately 36,000 cells per well 1 day prior to experiments. A day after seeding, the cell medium was replaced with 200 μl Krebs-HEPES-buffer (KHB; 120 mM NaCl, 3 mM KCl, 2 mM CaCl2·2H2O, 2 mM MgCl2·6H2O, 20 mM D-glucose, pH = 7.3). The test drugs were initially dissolved in Milli-Q H2O or dimethyl sulfoxide (DMSO) at a concentration of 10 to 100 mM. Then, cells were treated with the respective concentration of the test drug diluted in KHB for 5 min as a pre-incubation step. Subsequently, in the uptake step, the solution was replaced with 50 μl/well diluted drug solution and tritiated substrate (hDAT: 0.1 μM [^3H]DA; hNET: 0.02 μM [^3H]MPP^+; hSERT: 0.1 μM [^3H]5-HT) for 1 min (hDAT, hSERT) or 3 min (hNET). After incubation, cells were immediately washed with 200 μl KHB to stop uptake. Uptake was indirectly measured by quantifying beta emission with liquid scintillation counting (Wallac 1450 MicroBeta TriLux Liquid Scintillation Counter & Lumi; GMI). Therefore, 200 μl Ultima Gold XR scintillation cocktail (PerkinElmer, MA, USA) was added to each well.\nas §1"}, "rSERT": {"target": "rSERT (Rattus norvegicus, UniProt P31652)", "sequence (P31652 whole entry)": "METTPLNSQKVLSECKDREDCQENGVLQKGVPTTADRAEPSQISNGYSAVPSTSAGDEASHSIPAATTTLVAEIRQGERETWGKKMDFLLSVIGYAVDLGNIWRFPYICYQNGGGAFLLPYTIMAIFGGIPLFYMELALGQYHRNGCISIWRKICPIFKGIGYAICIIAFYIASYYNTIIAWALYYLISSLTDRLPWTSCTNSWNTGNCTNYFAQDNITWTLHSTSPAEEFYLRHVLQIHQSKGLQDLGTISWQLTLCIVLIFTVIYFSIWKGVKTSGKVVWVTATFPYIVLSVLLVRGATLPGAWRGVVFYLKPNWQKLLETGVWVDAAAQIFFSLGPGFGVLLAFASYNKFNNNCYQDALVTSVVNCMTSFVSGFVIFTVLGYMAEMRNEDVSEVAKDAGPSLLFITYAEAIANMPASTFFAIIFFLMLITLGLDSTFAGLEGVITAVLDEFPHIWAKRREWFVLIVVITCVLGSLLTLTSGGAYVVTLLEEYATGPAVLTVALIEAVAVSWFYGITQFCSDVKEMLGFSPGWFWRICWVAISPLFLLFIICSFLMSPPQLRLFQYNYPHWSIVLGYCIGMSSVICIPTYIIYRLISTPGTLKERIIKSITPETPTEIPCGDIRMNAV", "assay_type": "cell-based", "parameters": "expressed in transfected cells", "settings": "for Mean diff, rSERT efflux ± Mon (Šídák's multiple comparisons test): drug alone vs drug + monensin (Mon)", "procedure": "A day prior to the experiment, HEK293 cells stably expressing hSERT or rat SERT (rSERT) were seeded at a density of 100,000 cells per channel into 6 channel flow ibidi slides (Gräfelfing, Germany). On the day of the experiments, cells were preloaded with 0.1 μM [^3H]5-HT at 37 °C, 5% CO2 for 20 min. Subsequently, the slides were transferred to the superfusion apparatus ([59]). Cells were then washed with KHB for 15 min under a constant flow of 0.5 ml/min. Fractions were collected every 2 min in 8 ml vials containing 2 ml scintillation cocktail. Collection began with three baseline fractions using KHB, followed by four additional basal release fractions with KHB, either with or without 10 μM monensin. […] To assess residual radioactivity within the cells, they were lysed with 1% sodium dodecyl sulfate (SDS), and three final fractions were obtained. The measured tritiated substrate in each fraction was expressed as a percentage of the initial tritiated substrate present at the start of that fraction.\nUptake inhibition data were evaluated by one-way ANOVA followed by Tukey's multiple comparisons test. Release data were analyzed using a two-way ANOVA (batch release) or a mixed-effects model with Geisser-Greenhouse correction (time-dependent traces) employing Šidák correction for comparing differences between compounds with or without the addition of monensin."}, "humans": {"test_system": "humans", "parameters": "method as in PMID 4392006, PMID 7437258", "settings": "dose range of 10–30 mg ref 15, 16; cited from earlier work"}, "mice": {"test_system": "mice", "parameters": "method as in PMID 34896117", "settings": "moderate and high doses ref 2; cited from earlier work"}},
  "note": "Like-named read-outs stand apart in the source and are kept apart here.",
  "data": [
    {"compound": "CCCC(Cc1cccc(C)c1)N1CCCC1", "note": "(stereo not drawn) [3-Methylprolintane, 1-[1-(3-methylphenyl)pentan-2-yl]pyrrolidine]", "values": [
      {"measurement": "hSERT-mediated efflux, predicted (LS) mean diff, No mon - Mon", "setting": "hSERT [1]", "result": -5.6},
      {"measurement": "Mean of normalized currents elicited through hSERT by drug application", "setting": "hSERT [2]", "result": 0.354},
      {"measurement": "IC50", "setting": "hSERT [3]", "result": "2.95 ± 0.541", "unit": "µM"}
    ]},
    {"compound": "CCCC(Cc1ccccc1)N1CCCC1", "note": "(stereo not drawn) [Prolintane, 1-(1-phenylpentan-2-yl)pyrrolidine]", "values": [
      {"measurement": "hSERT-mediated efflux, predicted (LS) mean diff, No mon - Mon", "setting": "hSERT [1]", "result": -7.218},
      {"measurement": "Mean of normalized currents elicited through hSERT by drug application", "setting": "hSERT [2]", "result": 0.2567},
      {"measurement": "hSERT-mediated current", "setting": "hSERT [2]; prolintane 30 µM, after 5-HT washout (Fig. S2)", "result": "elicited an inward current"},
      {"measurement": "Mean diff, rSERT efflux ± Mon (Šídák's multiple comparisons test)", "setting": "rSERT; Row 1 (time fraction)", "result": -0.3272},
      {"measurement": "Mean diff, rSERT efflux ± Mon (Šídák's multiple comparisons test)", "setting": "rSERT; Row 2 (time fraction)", "result": -0.2896},
      {"measurement": "Mean diff, rSERT efflux ± Mon (Šídák's multiple comparisons test)", "setting": "rSERT; Row 3 (time fraction)", "result": -0.1547},
      {"measurement": "Mean diff, rSERT efflux ± Mon (Šídák's multiple comparisons test)", "setting": "rSERT; Row 4 (time fraction)", "result": -0.119},
      {"measurement": "Mean diff, rSERT efflux ± Mon (Šídák's multiple comparisons test)", "setting": "rSERT; Row 5 (time fraction)", "result": -0.6706},
      {"measurement": "Mean diff, rSERT efflux ± Mon (Šídák's multiple comparisons test)", "setting": "rSERT; Row 6 (time fraction)", "result": -0.9234},
      {"measurement": "Mean diff, rSERT efflux ± Mon (Šídák's multiple comparisons test)", "setting": "rSERT; Row 7 (time fraction)", "result": -1.427},
      {"measurement": "Mean diff, rSERT efflux ± Mon (Šídák's multiple comparisons test)", "setting": "rSERT; Row 8 (time fraction)", "result": -2.621},
      {"measurement": "Mean diff, rSERT efflux ± Mon (Šídák's multiple comparisons test)", "setting": "rSERT; Row 9 (time fraction)", "result": -2.612},
      {"measurement": "Mean diff, rSERT efflux ± Mon (Šídák's multiple comparisons test)", "setting": "rSERT; Row 10 (time fraction)", "result": -2.362},
      {"measurement": "Mean diff, rSERT efflux ± Mon (Šídák's multiple comparisons test)", "setting": "rSERT; Row 11 (time fraction)", "result": -2.416},
      {"measurement": "Mean diff, rSERT efflux ± Mon (Šídák's multiple comparisons test)", "setting": "rSERT; Row 12 (time fraction)", "result": -2.279},
      {"measurement": "[3H]5-HT releasing profile in cells expressing rSERT", "setting": "rSERT; superfusion, HEK293 cells, with and without monensin", "result": "almost identical pseudo-efflux releasing profile"},
      {"measurement": "clinical effects", "setting": "humans", "result": "dose-dependent psychostimulant effects, sympathomimetic effects and reduced total rapid eye movement (REM) sleep"},
      {"measurement": "IC50", "setting": "hSERT [3]", "result": "28.6 ± 4.01", "unit": "µM"},
      {"measurement": "IC50 at hSERT, fold weaker than at hDAT and hNET", "setting": "hSERT [3]; HEK293 cells", "result": "more than 500 fold"},
      {"measurement": "abuse-related behavioural effects", "setting": "mice", "result": "rewarding and reinforcing effects"}
    ]},
    {"compound": "CCCC(Cc1ccc(F)cc1)N1CCCC1", "note": "(stereo not drawn) [4-Fluoroprolintane, 1-[1-(4-fluorophenyl)pentan-2-yl]pyrrolidine]", "values": [
      {"measurement": "hSERT-mediated efflux, predicted (LS) mean diff, No mon - Mon", "setting": "hSERT [1]", "result": -7.206},
      {"measurement": "Mean of normalized currents elicited through hSERT by drug application", "setting": "hSERT [2]", "result": 0.3167},
      {"measurement": "IC50", "setting": "hSERT [3]", "result": "19.6 ± 2.43", "unit": "µM"}
    ]},
    {"compound": "CCCC(Cc1cccc(F)c1)N1CCCC1", "note": "(stereo not drawn) [3-Fluoroprolintane, 1-[1-(3-fluorophenyl)pentan-2-yl]pyrrolidine]", "values": [
      {"measurement": "hSERT-mediated efflux, predicted (LS) mean diff, No mon - Mon", "setting": "hSERT [1]", "result": -5.404},
      {"measurement": "Mean of normalized currents elicited through hSERT by drug application", "setting": "hSERT [2]", "result": 0.306},
      {"measurement": "IC50", "setting": "hSERT [3]", "result": "13.5 ± 1.84", "unit": "µM"}
    ]},
    {"compound": "CCCC(Cc1ccc(C)cc1)N1CCCC1", "note": "(stereo not drawn) [4-Methylprolintane, 1-[1-(4-methylphenyl)pentan-2-yl]pyrrolidine]", "values": [
      {"measurement": "hSERT-mediated efflux, predicted (LS) mean diff, No mon - Mon", "setting": "hSERT [1]", "result": -4.314},
      {"measurement": "Mean of normalized currents elicited through hSERT by drug application", "setting": "hSERT [2]", "result": 0.21},
      {"measurement": "IC50", "setting": "hSERT [3]", "result": "2.56 ± 0.515", "unit": "µM"},
      {"measurement": "inhibitory potency at hSERT compared to pyrovalerone, fold greater", "setting": "hSERT [3]; pyrovalerone value ref 53", "result": 10, "unit": "fold"}
    ]},
    {"compound": "CCCC(Cc1ccccc1F)N1CCCC1", "note": "(stereo not drawn) [2-Fluoroprolintane, 1-[1-(2-fluorophenyl)pentan-2-yl]pyrrolidine]", "values": [
      {"measurement": "hSERT-mediated efflux, predicted (LS) mean diff, No mon - Mon", "setting": "hSERT [1]", "result": -6.392},
      {"measurement": "Mean of normalized currents elicited through hSERT by drug application", "setting": "hSERT [2]", "result": 0.28},
      {"measurement": "IC50", "setting": "hSERT [3]", "result": "35.2 ± 9.25", "unit": "µM"}
    ]},
    {"compound": "CCCC(Cc1ccccc1C)N1CCCC1", "note": "(stereo not drawn) [2-Methylprolintane, 1-[1-(2-methylphenyl)pentan-2-yl]pyrrolidine]", "values": [
      {"measurement": "hSERT-mediated efflux, predicted (LS) mean diff, No mon - Mon", "setting": "hSERT [1]", "result": -4.459},
      {"measurement": "Mean of normalized currents elicited through hSERT by drug application", "setting": "hSERT [2]", "result": 0.386},
      {"measurement": "IC50", "setting": "hSERT [3]", "result": "4.25 ± 1.78", "unit": "µM"}
    ]}
  ]
}
